According to patent publication US20220204479A1, “PYRIMIDINE COMPOUND AND PREPARATION METHOD THEREFOR” (Wuhan Humanwell Innovative Drug Research And Development …, priority 2019, published 2022):
pIC50: −log10 of the molar value. ≈ marks a conversion by molar mass, not a printed value. Where two headings read alike, the source gives them in different places.

Legend:
[1] = molecular target: T1, ATX enzyme in human plasma (Homo sapiens, UniProt Q13822); experiment: Inhibition of activity of ATX enzyme in human plasma (LPA18:2 formation, LC-MSMS); assay type: biochemical; conditions: for pIC50: human plasma, 37° C., 3 h, LPA18:2 formation, read-out: IC50, inhibitory effect on activity of ATX enzyme in human plasma
T1 construct: Whole blood was collected from healthy volunteers and anticoagulated with heparin; from tissue; host or cells: human plasma (heparin) from healthy volunteers
Method: Whole blood was collected from healthy volunteers and anticoagulated with heparin. The blood collection tubes were centrifuged at 3,000 rpm for 10 min, and the plasma was taken and stored at −80° C. for use.
The compound was serially diluted with DMSO according to the conventional concentration requirements, then 3 μL of each of the diluted compound solutions was added to a 96-well plate, and 147 μL of PBS was added to each well containing 3 μL of the compound solution. After mixing homogenously, 50 μL of the mixture was taken out and added to a new 96-well plate. The human plasma was taken out from the −80° C. refrigerator and thawed through rapid shaking in a 37° C. water bath. 50 μL of the human plasma was taken and added to the 96-well plate containing 50 μL of the diluted compound (the final system contained 1% DMSO). The group without the compound was set as the positive group. The 96-well plate was shaken and mixed uniformly, and incubated at 37° C. for 3 h. A blank group was also provided, and the plasma of the blank group was stored at −80° C. The blank group is provided to determine the baseline concentration of endogenous LPA.
After the incubation was finished, the blank group was thawed on ice and transferred to an incubation plate. Excess acetonitrile containing the internal standard LPA17: 0 was added to the incubation plate to precipitate the plasma protein. After vortex centrifugation, the supernatant was taken and diluted, and a peak area of LPA18: 2 and a peak area of internal standard LPA17: 0 were detected using LC-MSMS mass spectrometry.
(§1) A ratio of the peak area of LPA18: 2 to the peak area of internal standard LPA17: 0 was calculated, and a formation inhibition rate of LPA18: 2 was calculated according to the following formula:
(§2) Inhibition rate (%)=100−(compound group with different concentrations−blank group)/(positive group−blank group)*100
According to the inhibition rates of different concentrations of the compound, the IC50 value of the compound for inhibiting activity of ATX enzyme in human plasma was calculated.

[2] = molecular target: T2, ATX enzyme in rat plasma (Rattus norvegicus, UniProt Q64610); experiment: Inhibition of activity of ATX enzyme in rat plasma (LPA18:2 formation, LC-MSMS); assay type: biochemical; conditions: for inhibitory activity on ATX enzyme in rat plasma compared with control compounds 1 and 2: comparison in words
T2 construct: Whole blood was collected from rats and anticoagulated with heparin; from tissue; host or cells: rat plasma (heparin)
Method: Whole blood was collected from rats and anticoagulated with heparin. The blood collection tubes were centrifuged at 3,000 rpm for 15 min, and the plasma was placed on ice for use.
The compound was serially diluted with DMSO: 30% ACN=1:19 according to the conventional concentration requirements, and then placed on ice. 147 μL of plasma, which was placed on ice, was added to a 96-well plate, and then 3 μL of each of the gradient solutions of the compound (finally 1[…] DMSO) was added. A group containing none of the compounds was set as the positive group. The 96-well plate was mixed uniformly, and incubated at 37° C. for 3 h. In addition, a blank group was also provided. At the beginning of the incubation, the plasma of blank group was added to with excessive acetonitrile containing the internal standard LPA17: 0 to precipitate the plasma protein, vortexed to mix, and stored at 4° C. The blank group was provided to determine the baseline concentration of endogenous LPA.
A peak area of LPA18: 2 and a peak area of internal standard LPA17: 0 were detected using LC-MSMS mass spectrometry.
as §1, §2
According to the inhibition rates of different concentrations of the compound, the IC50 value of the compound for inhibiting activity of ATX enzyme in rat plasma, was calculated.

[3] = molecular target: T3, autotaxin (ATX) enzyme (Homo sapiens, UniProt Q13822); experiment: Autotaxin (ATX) enzyme activity inhibition test (Cayman Autotaxin Inhibitor Screening Assay Kit); assay type: biochemical; conditions: 37° C., 30 min, OD405, read-out: IC50, inhibitory effect on ATX enzyme activity
T3 construct: purchased Cayman 700580
Method: The inhibitory effects of the compounds on the autotaxin enzyme were detected using the Autotaxin Inhibitor Screening Assay Kit (Cayman, 700580). […] Subsequently, the 8 concentrations were diluted with Autotaxin Assay buffer (1×) provided in the kit into 19× compound working solutions (DMSO content was 1.9%). The Autotaxin Assay Reagent (10×) was taken out and diluted by 10 times with Autotaxin Assay Buffer (1×). The Autotaxin Substrate was taken out, dissolved by adding 1.2 mL of Autotaxin Assay Buffer (1×), mixed evenly and let stand by at room temperature. In a 96-well plate, 150 μL of Autotaxin Assay Buffer (1×), 10 μL of the prepared and diluted 19× compound working solution, 10 μL of Autotaxin Assay Reagent (1×), and 20 μL of the dissolved Autotaxin Substrate were added to each of the wells for each concentration, and homogenously mixed. The 96-well plate was shaken in a constant temperature shaker at 37° C. and incubated in the dark for 30 min, and then the plate was taken out and placed on a microplate reader to read OD405.

[4] = Human liver microsome stability test; conditions: human liver microsomes; for Remaining percentage (%) of compound after incubation for 30 min: NADPH, 37° C.; for half-life at 1 µM: human
Method: The human liver microsome stability test was performed by incubating the compound and human liver microsomes in vitro for detection. First, the test compound was prepared into a 10 mM stock solution in DMSO solvent, and then the compound was diluted to 0.5 mM with acetonitrile. Human liver microsomes (Corning) were diluted with PBS and prepared as a microsome/buffer solution, which was used to dilute the 0.5 mM compound solution into a working solution. […] A deep-well multi-well plate was taken, 30 μL of the working solution and 15 μL of pre-warmed NADPH solution (6 mM) were sequentially added to each well to initiate a reaction, and the reaction was incubated at 37° C. […] After centrifugation, the supernatant was collected, and added with purified water in a ratio of 1:1 to perform LC-MS/MS detection. […] T1/2 was calculated by using Excel.

[5] = Pharmacokinetic test in rats; assay type: in vivo; conditions: Sprague-Dawley, rat, plasma, male SD rats, oral gavage 10 mg/kg
Method: (§3) For the pharmacokinetic test of rats, 3 male SD rats (180-240 g) were used, and fasted overnight. The rats were orally administered by gavage (10 mg/kg). […] The blood samples were centrifuged at 8,000 rpm at 4° C. for 6 min, and plasma was collected and stored at −20° C. The plasma at each time point was taken and added with an acetonitrile solution containing internal standard in 3 to 5 times the amount, vortexed and mixed for 1 min, and centrifuged at 13,000 rpm at 4° C. for 10 min. The supernatant was collected, added with water in 3 times the amount, and mixed. An appropriate amount of the mixture was taken for LC-MS/MS analysis. The main pharmacokinetic parameters were analyzed using WinNonlin 7.0 software with non-compartmental model.

[6] = Pharmacokinetic test in canines; assay type: in vivo; conditions: dog, plasma; male beagle dogs, oral gavage 5 mg/kg
Method: as §3
For the pharmacokinetics test of canines, 3 male beagle dogs (8 to 10 kg) were used, and fasted overnight. The dogs were orally administered by gavage (5 mg/kg). The rest of the operation is the same as the pharmacokinetic test in rats.

[7] = Thermodynamic solubility test; assay type: physicochemical; conditions: thermodynamic from solid
Method: The compound was accurately weighed, and the prepared phosphate buffer (pH 7.4), FeSSIF solution (pH 5.8) and FaSSGF solution (pH 1.6) were added to prepare a solution with a concentration of 4 mg/mL, which was shaken at 1,000 rpm for 1 hour, and then incubated overnight at room temperature. After the incubation, the solution was centrifuged at 12,000 rpm for 10 min to remove undissolved particles, and the supernatant was transferred to a new centrifuge tube. The supernatant was diluted appropriately, then added with an acetonitrile solution containing the internal standard, and quantified using a standard curve prepared with the same matrix.

[8] = rat plasma, 37° C., 3 h, LPA18:2 formation, read-out: IC50, inhibitory effect on activity of ATX enzyme in rat plasma
[9] = FaSSGF solution, fassgf or other biorelevant, FaSSGF pH 1.6, overnight at room temperature, read-out: Solubility, FaSSGF (pH 1.6)
[10] = FeSSIF solution, FeSSIF pH 5.8, overnight at room temperature, read-out: Solubility, FeSSIF (pH 5.8)
[11] = phosphate buffer (PBS), aqueous buffer, PBS pH 7.4, overnight at room temperature, read-out: Solubility, PBS (pH 7.4)

Compound	pIC50 [1]	pIC50 [2, 8]	pIC50 [3]	solubility [7, 9] [µg/mL]	solubility [7, 11] [µg/mL]	further results
O=C(c1cnc(NC2Cc3ccc(F)cc3C2)nc1)N1CC2(CC(OCc3c[nH]nn3)C2)C1 (centres unmarked) [Compound I-10, (6-((1H-1,2,3-triazol-4-yl)methoxy)-2-azaspiro[3.3]heptan-2-yl)(2-((5-fluoro-2,3-dihydro-1H-inden-2-yl)amino)pyrimidin-5-yl)methanone]	7.93	8.32	8.97	–	–	inhibitory effect on ATX enzyme in human plasma compared with control compounds 1 and 2 ([1]; comparison in words): higher inhibitory effect on ATX enzyme in human plasma than the control compounds 1 and 2; inhibitory activity on ATX enzyme in rat plasma compared with control compounds 1 and 2 [2]: higher inhibitory activity on ATX enzyme in rat plasma than the control compounds 1 and 2
O=C(c1cnc(NC2Cc3ccc(F)cc3C2)nc1)N1CCC(COCc2c[nH]nn2)CC1 (centres unmarked) [Compound I-7, (4-(((1H-1,2,3-triazol-4-yl)methoxy)methyl)piperidin-1-yl)(2-((5-fluoro-2,3-dihydro-1H-inden-2-yl)amino)pyrimidin-5-yl)methanone]	7.84	7.83	8.94	–	–	–
CCc1nc2c(C)cc(N3CCN(CC(=O)N4CC(O)C4)CC3)cn2c1N(C)c1nc(-c2ccc(F)cc2)c(C#N)s1 [Control compound 2, reference compound]	–	–	–	–	–	Remaining percentage (%) of compound after incubation for 30 min [4]: 24.8%; half-life at 1 µM [4]: 16 min; Tmax [5]: 30 min; AUC(0-t) ([5]; read-out: AUC0-t): 2570 ng·h/mL; Cmax ([5]; read-out: Cmax): 582 ng/mL; pIC50 [2]: 6.38; AUC(0-t) [6]: 14200 ng·h/mL; Cmax [6]: 2100 ng/mL; Tmax [6]: 120 min
O=C(c1cnc(NC2Cc3ccccc3C2)nc1)N1CCC(COCc2c[nH]nn2)C(F)C1 (centres unmarked) [Compound I-6, (4-(((1H-1,2,3-triazol-4-yl)methoxy)methyl)-3-fluoropiperidin-1-yl)(2-((2,3-dihydro-1H-inden-2-yl)amino)pyrimidin-5-yl)methanone]	7.39	7.64	8.84	165 (≈ 366 µM)	18.6 (≈ 41.2 µM)	solubility [7, 10]: 49 µg/mL (≈ 109 µM)
CC(OCC1CCN(C(=O)c2cnc(NC3Cc4ccccc4C3)nc2)CC1)c1cn[nH]n1 (centres unmarked) [Compound I-2, (4-((1-(2H-1,2,3-triazol-4-yl)ethoxy)methyl)piperidin-1-yl)(2-((2,3-dihydro-1H-inden-2-yl)amino)pyrimidin-5-yl)methanone]	7.61	–	8.47	–	–	Remaining percentage (%) of compound after incubation for 30 min [4]: 39.65%; half-life at 1 µM [4]: 24 min
CC1CN(C(=O)c2cnc(NC3Cc4ccccc4C3)nc2)CCC1COCc1c[nH]nn1 (centres unmarked) [Compound I-4, (4-(((1H-1,2,3-triazol-4-yl)methoxy)methyl)-3-methylpiperidin-1-yl)(2-((2,3-dihydro-1H-inden-2-yl)amino)pyrimidin-5-yl)methanone]	–	7.49	–	332 (≈ 741 µM)	147 (≈ 329 µM)	–
O=C(c1cnc(NC2Cc3cc(F)c(F)cc3C2)nc1)N1CCC(COCc2c[nH]nn2)CC1 [Compound I-8, (4-(((1H-1,2,3-triazol-4-yl)methoxy)methyl)piperidin-1-yl)(2-((5,6-difluoro-2,3-dihydro-1H-inden-2-yl)amino)pyrimidin-5-yl)methanone]	–	6.87	8.69	–	–	–
CC(OCc1c[nH]nn1)C1CCN(C(=O)c2cnc(NC3Cc4ccccc4C3)nc2)CC1 (centres unmarked) [Compound I-3, (4-(1-((1H-1,2,3-triazol-4-yl)methoxy)ethyl)piperidin-1-yl)(2-((2,3-dihydro-TH-inden-2-yl)amino)pyrimidin-5-yl)methanone]	7.38	–	8.17	–	–	–
CC1CC(COCc2c[nH]nn2)CCN1C(=O)c1cnc(NC2Cc3ccccc3C2)nc1 (centres unmarked) [Compound I-5, (4-(((1H-1,2,3-triazol-4-yl)methoxy)methyl)-2-methylpiperidin-1-yl)(2-((2,3-dihydro-1H-inden-2-yl)amino)pyrimidin-5-yl)methanone]	7.51	7.97	8.89	448 (≈ 1000 µM)	129 (≈ 288 µM)	solubility [7, 10]: 317 µg/mL (≈ 708 µM); inhibitory activity on ATX enzyme in rat plasma compared with control compounds 1 and 2 [2]: higher inhibitory activity on ATX enzyme in rat plasma than the control compounds 1 and 2
